From patent US20260250290A1 (BRISTOL-MYERS SQUIBB COMPANY, priority 2023, published 2026) come the findings set out here.

For the experiment, the target named is T1, full length SGK1 (Homo sapiens, UniProt O00141).
T1 construct: 125 μM full length SGK1 (Life Technologies Part #PR7358A); purchased Life Technologies PR7358A
T1 sequence (O00141 1-431): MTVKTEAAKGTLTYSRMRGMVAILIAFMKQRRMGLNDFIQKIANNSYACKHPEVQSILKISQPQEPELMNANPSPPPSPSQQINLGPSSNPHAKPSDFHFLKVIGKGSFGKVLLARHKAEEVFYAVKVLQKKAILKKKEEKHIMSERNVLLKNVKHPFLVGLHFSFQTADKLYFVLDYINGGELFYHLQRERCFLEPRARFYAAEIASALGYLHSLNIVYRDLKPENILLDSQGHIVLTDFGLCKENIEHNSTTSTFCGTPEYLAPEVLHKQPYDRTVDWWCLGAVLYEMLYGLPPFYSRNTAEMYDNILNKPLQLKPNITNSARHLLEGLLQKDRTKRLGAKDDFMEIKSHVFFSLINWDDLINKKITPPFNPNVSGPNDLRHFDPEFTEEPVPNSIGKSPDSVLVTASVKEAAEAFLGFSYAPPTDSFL
The experiment in a line: SGK1 inhibition Assay A (Caliper LabChip electrophoretic separation of fluorescent peptide substrate and phosphorylated product). In kind it is biochemical. The settings on record: Assay A; 20 μM ATP, 40 min incubation; read-out: SGK1 IC50.

`COC(=O)N1CC=C(c2cc(N3CCC[C@@H](NC(=O)c4sc(Cl)cc4OCC4CNC4)C3)c3c(N)ncnn23)C1` [Example 634, Methyl (R)-3-(4-amino-5-(3-(3-(azetidin-3~ylmethoxy)-5-chlorothiophene-2-carboxamido)piperidin-1-y1)pyrrolo[2,1-f][1,2,4]triazin-7-y1)-2,5-dihydro-\H-pyrrole-1-carboxylate]: the IC50 worked out at 18 nM.
As for `N#Cc1ccc(-c2cc(N3CCC[C@@H](NC(=O)c4sc(Cl)cc4OCC4CNC4)C3)c3c(N)ncnn23)cn1` [Example 635], the IC50 was 7 nM.
With `CC(=O)N1CC=C(c2cc(N3CCC[C@@H](NC(=O)c4sc(Cl)cc4OC4CCNC4)C3)c3c(N)ncnn23)C1` (stereo partly drawn) [Example 636, N-((R)-1-(7-(1-acetyl-2,5-dihydro-1H-pyrrol-3-yl)-4-aminopyrrolo[2,1-f][1,2,4]triazin-5-yl)piperidin-3-y1)-5-chloro-3-(pyrrolidin-3-yloxy)thiophene-2-carboxamide] the figure was 5 nM.
Take `N#Cc1ccc(-c2cc(N3CCC[C@@H](NC(=O)c4sc(Cl)cc4OC4CCNC4)C3)c3c(N)ncnn23)cn1` (stereo partly drawn) [Example 637, N-((R)-1-(4-amino-7-(6-cyanopyridin-3-yl)pyrrolo[2,1-f][1,2,4]triazin-5-yl)piperidin-3-y1)-5-chloro-3-(pyrrolidin-3-yloxy)thiophene-2-carboxamide]: the IC50 was 12 nM.
Next, `CC(=O)N1CC=C(c2cc(N3CCC[C@@H](NC(=O)c4sc(Cl)cc4OCC4CCNCC4)C3)c3c(N)ncnn23)C1` [Example 640, (R)-N-(1-(7-(1-acetyl-2,5-dihydro-1H-pyrrol-3-yl)-4-aminopyrrolo[2,1-f][1,2,4]triazin-5-y1)piperidin-3-y1)-5-chloro-3-(piperidin-4-ylmethoxy)thiophene~2-carboxamide]: 8 nM.
Next, `N#Cc1ccc(-c2cc(N3CCC[C@@H](NC(=O)c4sc(Cl)cc4OCC4CCNCC4)C3)c3c(N)ncnn23)cn1` [Example 641, (R)-N-(1-(4-amino-7-(6~cyanopyridin-3-y1)pyrrolo[2,1-f][1,2,4]triazin-5-y1)piperidin-3-yl)-5-chloro-3-(piperidin-4-ylmethoxy)thiophene-2-carboxamide]: 0.9 nM; `NC(=O)c1ccc(-c2cc(N3CCC[C@@H](NC(=O)c4sc(Cl)cc4OCC4CCNCC4)C3)c3c(N)ncnn23)cc1F` [Example 642, (R)-N-(1-(4-amino-7-(4-carbamoyl-3-fluorophenyl)pyrrolo[2,1-f][1,2,4]triazin-5-y1)piperidin-3-y1)-5-chloro-3-(piperidin-4-ylmethoxy)thiophene-2-carboxamide]: 4 nM; `CN1CCC(COc2cc(Cl)sc2C(=O)N[C@@H]2CCCN(c3cc(-c4cncnc4)n4ncnc(N)c34)C2)CC1` [Example 643, (R)-N-(1-(4-amino-7-(pyrimidin-5-yl)pyrrolo[2,1-f][1,2,4]triazin-5-y1)piperidin-3-y1)-5-chloro-3-((1-methylpiperidin-4-yl)methoxy)thiophene-2-carboxamide]: 8 nM.
With `NC(=O)c1ccc(-c2cc(N3CCC[C@@H](NC(=O)c4sc(Cl)cc4OCC4CCNCC4)C3)c3c(N)ncnn23)cn1` [Example 644, (R)-5-(4-amino-5-(3-(5-chloro-3-(piperidin-4-ylmethoxy)thiophene-2-carboxamido)piperidin-1-y1)pyrrolo[2,1-f][1,2,4]triazin-7-y1)picolinamide] the figure was 0.4 nM; with `Nc1ncnn2c(-c3ccnc(C(F)F)c3)cc(N3CCC[C@@H](NC(=O)c4cc5ccccc5s4)C3)c12` [Example 645, (R)-N-(1-(4-amino-7-(2-(difluoromethyl)pyridin-4-y1)pyrrolo[2,1-f][1,2,4]triazin-5-y1)piperidin-3-yl)benzo[b]thiophene-2-carboxamide], 4 nM; with `Nc1ncnn2c(-c3cncnc3)cc(N3CCC[C@@H](NC(=O)c4cc5ccccc5s4)C3)c12` [Example 646, (R)-N-(1-(4-amino-7-(pyrimidin-5-yl)pyrrolo[2,1-f][1,2,4]triazin-5-yl)piperidin-3-yl)benzo[b]thiophene-2-carboxamide], 8 nM.
Take `N#Cc1ccc(-c2cc(N3CCC[C@@H](NC(=O)c4nc5ccccc5s4)C3)c3c(N)ncnn23)cn1` [Example 647, (R)-N-(1-(4-amino-7-(6-cyanopyridin-3-yl)pyrrolo[2,1-f][1,2,4]triazin-5-yl)piperidin-3-yl)benzo[d]thiazole-2-carboxamide]: the IC50 was determined as 63 nM.
Regarding `N#Cc1ccc(-c2cc(N3CCC[C@@H](NC(=O)c4n[nH]c5ccccc45)C3)c3c(N)ncnn23)cn1` [Example 648, (R)-N-(1-(4-amino-7-(6-cyanopyridin-3-yl)pyrrolo[2,1-f][1,2,4]triazin-5-yl)piperidin-3-y1)-1H-indazole-3-carboxamide], the IC50 amounted to 104 nM.
Next, `N#Cc1ccc(-c2cc(N3CCC[C@@H](NC(=O)c4cc5ccccc5o4)C3)c3c(N)ncnn23)cn1` [Example 649]: 6 nM; `N#Cc1ccc(-c2cc(N3CCC[C@@H](NC(=O)c4nc5ccccc5o4)C3)c3c(N)ncnn23)cn1` [Example 650, (R)-N-(1-(4-amino-7-(6-cyanopyridin-3-yl)pyrrolo[2,1-f][1,2,4]triazin-5-yl)piperidin-3-yl)benzo[d]oxazole-2-carboxamide]: 54 nM; `COC(=O)N1CC=C(c2cc(N3CCC[C@@H](NC(=O)c4sc5ccccc5c4OC4CCN(C(=O)OC(C)(C)C)CC4)C3)c3c(N)ncnn23)C1` [Example 651, ter-butyl (R)-4-((2-((1-(4-amino-7-(1-(methoxycarbonyl)-2,5-dihydro-1H-pyrrol-3-yl)pyrrolo[2,1-f][1,2,4]triazin-5-yl)piperidin-3-yl)carbamoyl)benzo[b]thiophen-3-yl)oxy)piperidine-1-carboxylate]: 100 nM.
With `COC(=O)N1CC=C(c2cc(N3CCC[C@@H](NC(=O)c4sc5ccccc5c4OC4CCNCC4)C3)c3c(N)ncnn23)C1` [Example 652, methyl (R)-3-(4-amino-5-(3-(3-(piperidin-4-yloxy)benzo[b]thiophene-2-carboxamido)piperidin-1-yl)pyrrolo[2,1-f][1,2,4]triazin-7-yl)-2,5-dihydro-1H-pyrrole-1-carboxylate] the figure was 10 nM.
With `CC(=O)N1CC=C(c2cc(N3CCC[C@@H](NC(=O)c4sc5ccccc5c4OC4CCN(C(=O)OC(C)(C)C)CC4)C3)c3c(N)ncnn23)C1` [Example 653, tert-butyl (R)-4-((2-((1-(7-(1-acetyl-2,5-dihydro-1H-pyrrol-3-yl)-4-aminopyrrolo[2,1-f][1,2,4]triazin-5-yl)piperidin-3-yl)carbamoyl)benzo[b]thiophen-3-yl)oxy)piperidine-1-carboxylate] the figure was 51 nM; with `CC(C)(C)OC(=O)N1CCC(Oc2c(C(=O)N[C@@H]3CCCN(c4cc(-c5ccc(C#N)nc5)n5ncnc(N)c45)C3)sc3ccccc23)CC1` [Example 654, tert-butyl (R)-4-((2-((1-(4-amino-7-(6-cyanopyridin-3-yl)pyrrolo[2,1-f][1,2,4]triazin-5-yl)piperidin-3-yl)carbamoyl)benzo[b]thiophen-3-yl)oxy)piperidine-1-carboxylate], 57 nM.

For orientation: IC50 means the midpoint of a concentration-inhibition curve.
